According to patent US6465501B2, “Azolidines as β3 adrenergic receptor agonists” (Wyeth, priority 2000, dated 2002):
Counter-ions that a name gives are not always drawn.

O=C1NC(=O)C(Nc2ccc(CCNC[C@H](O)COc3ccc(Oc4ccccc4)cc3)cc2)S1 (stereo partly shown) (as salt: salt) [Example 1, 5-[4-(2-{[(2 S)-2-Hydroxy-3-(4-phenoxyphenoxy)propyl]amino}ethyl)anilino]-1,3-thiazolidine-2,4-dione]
melting point: 72 to 74 °C

O=C1NC(=O)C(Nc2ccc(CCNC[C@H](O)COc3ccc4occc4c3)cc2)S1 (stereo partly shown) (as salt: salt) (hydrate or solvate) [Example 15, 5-[4-(2-{[(2 S)-3-(1-Benzofuran-5-yloxy)-2-hydroxypropyl]amino}ethyl)anilino]-1,3-thiazolidine-2,4-dione]
melting point: 50 °C

O=C1NC(=O)C(Nc2ccc(CCNC[C@H](O)COc3ccc4ccccc4c3)cc2)S1 (stereo partly shown) (hydrate or solvate) [Example 21, 5-(4-{2-[(2 S)-2-Hydroxy-3-(naphthalen-2-yloxy)-propylamino]-ethyl}-phenylamino)-thiazolidine-2,4-dione]
melting point: 90 to 91 °C

O=C1NC(=O)C(Nc2ccc(CCNC[C@H](O)c3cccnc3)cc2)S1 (stereo partly shown) (hydrate or solvate) [Example 31, 5-{4-[2-((2 R)-2-Hydroxy-2-pyridin-3-yl-ethylamino)-ethyl]-phenylamino}-thiazolidine-2,4-dione]
melting point: 65 to 67 °C

O=C1NC(=O)C(Nc2ccc(CCNC[C@H](O)COc3ccc4c(c3)OCO4)cc2)S1 (stereo partly shown) (hydrate or solvate) [Example 24, 5-(4-{2-[(2 S)-3-(Benzo[1,3]dioxol-5-yloxy)-2-hydroxy-propylamino]-ethyl}-phenylamino)-thiazolidine-2,4-dione]
melting point: 65 °C (dec.)

CC(Cc1ccc(NC2SC(=O)NC2=O)cc1)NC[C@H](O)c1cccc(Cl)c1 (stereo partly shown) (as salt: salt) (hydrate or solvate) [Example 18, 5-[4-(2-{[(2 R)-2-(3-Chlorophenyl)-2-hydroxyethyl]amino}propyl)anilino]-1,3-thiazolidine-2,4-dione]
melting point: 83 to 85 °C

O=C1NC(=O)C(N(Cc2ccc(Br)cc2)c2ccc(CCNC[C@H](O)COc3ccccc3)cc2)S1 (stereo partly shown) (hydrate or solvate) [Example 29, 5-((4-Bromo-benzyl)-{4-[2-((2 S)-2-hydroxy-3-phenoxy-propylamino)-ethyl]-phenyl}-amino)-thiazolidine-2,4-dione]
melting point: 52 to 54 °C

O=C1NC(=O)C(N(Cc2ccc(Br)cc2)c2ccc(CCNC[C@H](O)COc3ccc(OCc4ccccc4)cc3)cc2)S1 (stereo partly shown) (as salt: salt) [Example 25, 5-[(4-{2-[(2 S)-3-(4-Benzyloxy-phenoxy)-2-hydroxy-propylamino]-ethyl}-phenyl)-(4-bromo-benzyl)-amino]-thiazolidine-2,4-dione]
melting point: 50 to 52 °C

O=C1NC(=O)C(N(CC#Cc2ccc(F)cc2)c2ccc(CCNC[C@H](O)COc3ccc(OCc4ccccc4)cc3)cc2)S1 (stereo partly shown) (hydrate or solvate) [Example 27, 5-[(4-{2-[(2 S)-3-(4-Benzyloxy-phenoxy)-2-hydroxy-propylamino]-ethyl}-phenyl)-[3-(4-fluoro-phenyl)-prop-2-ynyl]-amino}-thiazolidine-2,4-dione]
melting point: 99 to 101 °C

O=C1NC(=O)C(Nc2ccc(CCNC[C@@H](O)COc3cccc4[nH]c(=O)[nH]c34)cc2)S1 (stereo partly shown) (as salt: salt) [Example 19, 5-{4-[2-({(2 R)-2-Hydroxy-3-[(2-oxo-2,3-di hydro-1 H-benzimidazol-4-yl)oxy]propyl}amino)ethyl]anilino}-1,3-thiazolidine-2,4-dione]
melting point: 172 °C

CS(=O)(=O)Nc1cc([C@H](O)CNCCc2ccc(NC3SC(=O)NC3=O)cc2)ccc1O (stereo partly shown) (as salt: salt) (hydrate or solvate) [Example 14, N{5-[(1 S)-2-({4-[(2,4-Dioxo-1,3-thiazolidin-5-yl)amino]phenethyl}amino)-1-hydroxyethyl]-2-hydroxyphenyl}methanesulfonamide]
melting point: 130 °C

CN(c1ccc(CCNC[C@H](O)COc2ccccc2)cc1)C1SC(=O)NC1=O (stereo partly shown) (as salt: salt) (hydrate or solvate) [Example 17, 5-[4-(2-{[(2 S)-2-Hydroxy-3-phenoxypropyl]amino}ethyl)(methyl)anilino]-1,3-thiazolidine-2,4-dione.]
melting point: 58 °C

O=C1NC(=O)C(Nc2ccc(CCNC[C@H](O)COc3ccc(F)cc3)cc2)S1 (stereo partly shown) (as salt: salt) (hydrate or solvate) [Example 8, 5-[4-(2-{[(2 S)-3-(4-Fluorophenoxy)-2-hydroxypropyl]amino}ethyl)anilino]-1,3-thiazolidine-2,4-dione]
melting point: 55 °C

CN(c1ccc(CCNC[C@H](O)COc2ccc(OCc3ccccc3)cc2)cc1)C1SC(=O)NC1=O (stereo partly shown) (as salt: salt) [Example 26, 5-[(4-{2-[(2 S)-3-(4-Benzyloxy-phenoxy)-2-hydroxy-propylamino]-ethyl}-phenyl)-methyl-amino]-thiazolidine-2,4-dione]
melting point: 51 to 53 °C

O=C1NC(=O)C(Nc2ccc(CCNC[C@H](O)COc3ccccc3)cc2)S1 (stereo partly shown) (as salt: salt) (hydrate or solvate) [Example 9, 5-[4-(2-{[(2 S)-2-Hydroxy-3-phenoxypropyl]amino}ethyl)anilino]-1,3-thiazolidine-2,4-dione]
melting point: 55 °C

O=C1NC(=O)C(Nc2ccc(CCNC[C@H](O)COc3ccc(-c4ccccc4)cc3)cc2)S1 (stereo partly shown) [Example 22, 5-(4-{2-[(2 S)-3-(Biphenyl-4-yloxy)-2-hydroxy-propylamino]-ethyl}-phenylamino)-thiazolidine-2,4-dione]
melting point: 70 to 71 °C

CN1C(=O)SC(Nc2ccc(CCNC[C@H](O)COc3ccc(OCc4ccccc4)cc3)cc2)C1=O (stereo partly shown) (as salt: HBr) [Example 2, 5-{4-[2-({(2 S)-3-[4-(Benzyloxy}phenoxy]-2-hydroxypropyl}amino)ethyl]anilino}-3-methyl-1,3-thiazolidine-2,4-dione]
melting point: 165 to 167 °C

O=C1NC(=O)C(Nc2ccc(CCNC[C@H](O)COc3cccc(O)c3)cc2)S1 (stereo partly shown) (as salt: salt) (hydrate or solvate) [Example 12, 5-[4-(2-{[(2 S)-2-Hydroxy-3-(3-hydroxyphenoxy)propyl]amino}ethyl)anilino]-1,3-thiazolidine-2,4-dione]
melting point: 65 °C

O=C1NC(=O)C(Nc2ccc(CCNC[C@H](O)c3ccccc3)cc2)S1 (stereo partly shown) (as salt: salt) [Example 7, 5-[4-(2-{[(2 R)-2-Hydroxy-2-phenylethyl]amino}ethyl)anilino]-1,3-thiazolidine-2,4-dione]
melting point: 55 °C

O=C1NC(=O)C(Nc2ccc(CCNC[C@H](O)COc3cccc4[nH]c5ccccc5c34)cc2)S1 (stereo partly shown) (as salt: salt) (hydrate or solvate) [Example 13, 5-[4-(2-{[(2 S)-3-(9 H-Carbazol-4-yloxy)-2-hydroxypropyl]amino}ethyl)anilino]-1 ,3-thiazolidine-2,4-dione]
melting point: 140 °C

O=C1NC(=O)C(N(Cc2ccc(Br)cc2)c2ccc(CCNC[C@H](O)COc3ccc(O)cc3)cc2)S1 (stereo partly shown) (hydrate or solvate) [Example 28, 5-[(4-Bromo-benzyl)-(4-{2-[(2 S)-2-hydroxy-3-(4-hydroxy-phenoxy)-propylamino]-ethyl}-phenyl)-amino]-thiazolidine-2,4-dione]
melting point: 79 °C (dec.)

CN1C(=O)SC(Nc2ccc(CCNC[C@H](O)c3cccc(Cl)c3)cc2)C1=O (stereo partly shown) [Example 3, 5-[4-(2-{[(2 R)-2-(3-Chlorophenyl)-2-hydroxyethyl]amino}ethyl)anilino]-3-methyl-1,3-thiazolidine-2,4-dione]
melting point: 129 to 131 °C

O=C1NC(=O)C(Nc2ccc(CCNC[C@@H](O)c3cccnc3)cc2)S1 (stereo partly shown) (hydrate or solvate) [Example 30, 5-{4-[2-((2 S)-2-Hydroxy-2-pyridin-3-yl-ethylamino)-ethyl]-phenylamino}-thiazolidine-2,4-dione]
melting point: 46 to 48 °C

O=C1NC(=O)C(Nc2ccc(CCNCC(O)COc3cccc4ccccc34)cc2)S1 (stereo not shown) (hydrate or solvate) [Example 23, 5-(4-{2-[2-Hydroxy-3-(naphthalen-1-yloxy)-propylamino]-ethyl}-phenylamino)-thiazolidine-2,4-dione]
melting point: 61 to 62 °C

COc1ccc(OC[C@@H](O)CNCCc2ccc(NC3SC(=O)NC3=O)cc2)cc1 (stereo partly shown) (as salt: salt) (hydrate or solvate) [Example 10, 5-[4-(2-{[(2 S)-2-Hydroxy-3-(4-methoxyphenoxy)propyl]amino}ethyl)anilino]-1,3-thiazolidine-2,4-dione]
melting point: 56 °C
